Reference: paper PMC6562422, “Huzhangoside A Suppresses Tumor Growth through Inhibition of Pyruvate Dehydrogenase Kinase Activity” (Cancers, 2019)
One block for each compound: values may come before it.

Tests used:
[1] = molecular target: T1, PDHK and PDC E2 subunit (Homo sapiens, UniProt Q15118); test: PDC subunits and PDHK binding assay; settings: 500 μM Hu.A, GST-PDHK1 pull-down, HEK293T lysate
T1 construct: expressed in transfected cells; host or cells: HEK293T (GST-PDHK1 transfected; E2 endogenous from HEK293T whole cell lysate)
Protocol: HEK293T cells, transfected with GST-PDHK1 construct, were lysed and incubated with Glutathione Sepharose 4B beads. The beads were washed and HEK293T whole cell lysate was added with/without 500 μM of Hu.A and the samples were analyzed by western blot analysis.

[2] = test system: LLC cell allograft; test: LLC tumor allograft in C57BL/6 mice; type: in vivo
Protocol: LLC cells (5 × 10^5 cells/100 μL PBS) were injected into the dorsal subcutaneous skin of C57BL/6 mice (n = 8 mice per group). The control (untreated) group and Hu.A-treated groups were administered 0 mg/kg and 0.1 mg/kg, 0.5 mg/kg, and 1 mg/kg of Hu.A in 100 μL PBS/20 g via intraperitoneal (i.p.) injection for 14 days, respectively. The mice were killed 14 days after inoculation of LLC cells and the tumors were seceded from the mice and analyzed. The volumes of LLC cell derived-tumors were calculated using the formula ((length × width^2)/2).
For immunohistochemical analysis, the tumor tissues were fixed with 3.7% formalin in PBS and embedded in paraffin. The paraffin sections were incubated with a primary antibody against the Ki-67, a cell proliferation marker, and visualized via Dako EnVision kit (Dako, Jena, Germany). The sections were counterstained with hematoxylin.

[3] = test system: HSC-2; design: method as in PMID 19952458; settings: read-out: IC50 against human cancer cell line; cited from earlier work
[4] = test system: Hep3B cells; test: MTT cell viability assay; type: cell-based, human; settings: 3 μM, 24 h
[5] = test system: HT-29 cells; test: MTT cell viability assay; type: cell-based, human; settings: 3 μM, 24 h
[6] = test system: A549; design: method as in PMID 19952458; settings: read-out: IC50 against human cancer cell line; cited from earlier work
[7] = test system: HL-60; design: method as in PMID 19952458; settings: read-out: IC50 against human cancer cell line; cited from earlier work
[8] = molecular target: T2, GST-PDHK1 (Homo sapiens, UniProt Q15118); test: In vitro PDHK kinase assay (GST-PDHK1, recombinant PDHA, western blot); type: biochemical; settings: phosphorylation of recombinant PDHA by western blot
T2 construct: expressed in transfected cells; host or cells: HEK293T
Protocol: The kinase assay of PDHK1 was carried out as described previously. Briefly, HEK293T cells, transfected with GST-PDHK1 construct, were lysed, and the lysate was incubated with Glutathione Sepharose 4B beads (Amersham Biosciences, Uppsala, Sweden). The beads were washed and recombinant PDHA was added and incubated for 5 min at 30 °C in the kinase buffer. The phosphorylation of PDHA was analyzed by western blot analysis.

[9] = test system: DLD-1 cells; test: MTT cell viability assay; type: cell-based, human
Protocol: (§1) The cytotoxic effect of Hu.A was confirmed using a MTT assay. Briefly, DLD-1 cells (10^5 cells per well) were seeded in a 24-well plate and incubated overnight. The cells were then shifted to serum-free media and treated with Hu.A. MTT solution (2 mg/mL) was then added to the cells. The absorbance of formazan crystals formed were measured using a Spectramax M2 microplate reader (Molecular Devices, Sunnyvale, CA, USA) at 540 nm.

[10] = test system: MDA-MB-231 cells; test: MTT cell viability assay; type: cell-based, human; settings: 3 μM, 24 h
[11] = Blood biochemistry of tumor-bearing mice; type: in vivo, C57BL/6 mice; settings: serum; for Creatinine: below limit of detection; for BUN: mean ± SD (control 8.6 ± 0.8); for ALT: mean ± SD (control 14.8 ± 2.5); for AST: mean ± SD (control 79.8 ± 35.3)
Protocol: The blood sera were collected from the retro-orbital plexus of tumor-bearing mice treated with Hu.A. The levels of AST, ALT, BUN, and creatinine were analyzed by a commercial service provided by Green Cross Co. (Yongin, Korea).

[12] = molecular target: T3, PDHK1 (Homo sapiens, UniProt Q15118); test: ATP-binding assay; settings: His-tagged PDHK1 on Ni-NTA beads, 37 °C
T3 construct: made in house; host or cells: Escherichia coli BL21(DE3)
Protocol: The cloned PDHK1 was expressed in Escherichia coli BL21(DE3). The overexpressed protein was purified using affinity chromatography and gel filtration chromatography. The purified His-tagged PDHK1 was bound to Ni-NTA beads in binding buffer (20 mM HEPES-K^+ (pH 7.2) and 0.05% BSA) at 4 °C. The Ni-NTA beads with bound His-tagged PDHK1 were washed with the binding buffer followed by incubation with [α-^32P]ATP, ATP, and Hu.A at 37 °C. The beads were then washed with wash buffer (PBS). The bead-bound PDHK1 protein was achieved by 250 mM imidazole, and its radioactivity was detected by liquid scintillation counting.

[13] = test system: HSC-4; design: method as in PMID 19952458; settings: read-out: IC50 against human cancer cell line; cited from earlier work
[14] = test system: PDHK1-4; test: PDHK1-4 protein expression (western blot) in DLD-1 cells; type: cell-based, human; settings: serum-free medium, 4 h
Protocol: Figure 2 Hu.A reduced the PDHK1 activity and promoted oxidative phosphorylation (OXPHOS) in DLD-1 cells. (A) In vitro PDHK1 kinase assay was performed. (B, C) DLD-1 cells were treated with Hu.A in serum-free medium for 4 h. The levels of phosphorylated pyruvate dehydrogenase E1α subunit (PDHA) (B), and PDHK1-4 (C) were analyzed using western blot assay. PDHA (B) and GAPDH (C) were used as loading controls. (D) The intensity of bands (PDHK1-4/GAPDH) from three independent experiments was measured and indicated by mean ± SD. (E) DLD-1 cells were treated with Hu.A in serum-free medium for 6 h. O2 consumption rate was measured by using commercially available Oxygen Consumption Rate Assay Kit. (F) Lactate production was measured by lactate fluorometric assay kit (right panel). The data are shown as mean ± SD, respectively. **, p < 0.01 compared with control.
Western blotting assay was carried out as described previously. Briefly, equal amounts (20 μg) of the cell lysates were separated by sodium dodecyl sulfate–polyacrylamide gel electrophoresis and were transferred onto the nitrocellulose membrane (Hybond ECL; GE Healthcare). The membrane was incubated with specific antibodies. The bands of the target proteins were detected using ECL Plus reagent and ImageQuant LAS 4000 (GE Healthcare, Menlo Park, CA, USA).

[15] = test system: LLC cells; test: MTT cell viability assay; type: cell-based, murine; settings: 3 μM, 24 h, serum free medium
Protocol: as §1
Supplementary materials Huzhangoside A Suppresses Tumor
Growth through Inhibition of Pyruvate
Dehydrogenase Kinase Activity
Choong-Hwan Kwak, Jung-Hee Lee, Eun-Yeong Kim, Chang Woo Han, Keuk-Jun Kim, Hanna Lee, MyoungLae Cho, Se Bok Jang, Cheorl-Ho Kim, Tae-Wook Chung and Ki-Tae Ha
Figure S1. Hu.A inhibited cell viability and phosphorylation of PDHA in LLC cells. (A) The LLC cells were treated with indicated concentrations of Hu.A in serum free medium for 24 h and MTT assay was performed. The data was indicated as mean ± SD. * p < 0.05 and *** p < 0.001 compared with the control. (B) In serum free condition, the LLC cells were treated with indicated concentrations of Hu.A for 4 h. The levels of phosphor-PDHA and total PDHA were analyzed by Western blotting assay. (C) Schematic diagram of the mechanisms of Hu.A-mediated apoptosis was shown. The red circle and white P indicated phosphates. […]

[16] = test system: DLD-1 cells; test: Lactate production assay; type: cell-based, human
Protocol: Lactate in the cell culture medium was analyzed by a lactate fluorometric assay kit (Biovision, Milpitas, CA, USA) and measured using the Spectramax M2 microplate reader at 570 nm.

[17] = test system: DLD-1 cells; test: O2 consumption assay; type: cell-based, human; settings: serum-free medium, 6 h
Protocol: The O2 consumption rate was determined using the Oxygen Consumption Rate Assay Kit (Cayman Chemical, Ann Arbor, MI, USA) following the manufacturer’s protocol. The fluorescence of the oxygen probe was measured using the Spectramax M2 microplate reader at wavelengths of 380/650 nm.

[18] = molecular target: T3, PDHK1; settings: read-out: IC50 for inhibiting PDHK1 activity; cited from earlier work
[19] = test system: tumor growth; settings: JX06 is ref 12; cited from earlier work
[20] = molecular target: T3, PDHK1; settings: cited from earlier work

T3 sequence (Q15118 29-436): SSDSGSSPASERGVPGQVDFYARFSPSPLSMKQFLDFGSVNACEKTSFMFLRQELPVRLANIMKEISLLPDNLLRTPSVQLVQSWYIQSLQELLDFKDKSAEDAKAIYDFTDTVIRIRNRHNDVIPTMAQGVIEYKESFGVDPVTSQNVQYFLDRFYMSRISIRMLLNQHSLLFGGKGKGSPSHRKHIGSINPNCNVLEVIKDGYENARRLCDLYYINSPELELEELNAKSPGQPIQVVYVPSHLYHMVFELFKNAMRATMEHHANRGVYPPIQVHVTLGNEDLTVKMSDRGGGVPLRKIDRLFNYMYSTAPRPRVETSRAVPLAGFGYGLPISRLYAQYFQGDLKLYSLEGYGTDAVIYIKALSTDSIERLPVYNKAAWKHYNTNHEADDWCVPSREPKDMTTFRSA
T2 sequence (Q15118 29-436): as above
T1 sequence (Q15118 29-436): as above
T1 sequence (P10515 87-647 partner): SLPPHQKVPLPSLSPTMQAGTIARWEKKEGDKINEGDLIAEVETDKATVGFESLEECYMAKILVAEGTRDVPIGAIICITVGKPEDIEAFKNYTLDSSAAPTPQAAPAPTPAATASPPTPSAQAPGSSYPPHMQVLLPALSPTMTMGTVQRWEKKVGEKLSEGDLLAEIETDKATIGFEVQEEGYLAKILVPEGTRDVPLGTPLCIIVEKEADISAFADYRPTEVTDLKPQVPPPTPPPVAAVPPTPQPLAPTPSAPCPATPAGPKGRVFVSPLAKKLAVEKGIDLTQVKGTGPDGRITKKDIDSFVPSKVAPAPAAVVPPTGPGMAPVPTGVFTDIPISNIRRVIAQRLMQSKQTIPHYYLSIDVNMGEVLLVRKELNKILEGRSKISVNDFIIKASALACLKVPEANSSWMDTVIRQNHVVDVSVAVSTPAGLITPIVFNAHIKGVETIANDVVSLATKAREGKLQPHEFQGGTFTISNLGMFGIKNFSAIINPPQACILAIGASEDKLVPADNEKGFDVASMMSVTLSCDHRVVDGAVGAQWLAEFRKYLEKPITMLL

binding of PDHK and PDC E2 subunit [1]: did not significantly affect
kinase activity of GST-PDHK1 [8]: significantly inhibited
Creatinine ([11]; 0.1 mg/kg i.p.): < 0.17 mg/dL
BUN ([11]; 0.1 mg/kg i.p.): 8.8 ± 0.9 mg/dL
Creatinine ([11]; 0.5 mg/kg i.p.): < 0.17 mg/dL
BUN ([11]; 0.5 mg/kg i.p.): 8.9 ± 0.6 mg/dL
Creatinine ([11]; 1 mg/kg i.p.): < 0.17 mg/dL
BUN ([11]; 1 mg/kg i.p.): 8.4 ± 1.0 mg/dL
[α-32P]ATP-binding activity of PDHK1 [12]: decreased
SMILES: CC1OC(OC2C(OC3CCC4(C)C(CCC5(C)C4CC=C4C6CC(C)(C)CCC6(C(=O)O)CCC45C)C3(C)C)OCC(O)C2O)C(O)C(OC2OCC(O)C(O)C2O)C1O (stereo not drawn) [Hu.A, Huzhangoside A]
levels of cleaved forms of caspase-3, -9, and PARP in tumor tissues ([2]; 1 mg/kg, western blot): increased
growth of the allograft LLC cells (tumor volume and weight) ([2]; 0.1, 0.5 and 1 mg/kg/day i.p., dose-dependent): significantly suppressed
staining of Ki-67 in tumor tissues ([2]; immunohistochemistry, Hu.A-treated mice): reduced
phosphor-PDHA levels in tumor tissues ([2]; western blot, Hu.A-treated mice): markedly decreased
IC50 [3]: 5700 nM
cytotoxic effect [4]: more than 80%
cytotoxic effect [5]: more than 80%
IC50 [6]: 1500 nM
IC50 [7]: 2300 nM
cytotoxic effect ([9]; 3 μM, 24 h): more than 80%
cytotoxic effect of Hu.A after MitoTEMPO pre-treatment ([9]; DLD-1, MitoTEMPO 50 μM 1 h pre-treatment, then 3 μM Hu.A 6 h, serum-free): significantly reduced
cytotoxic effect [10]: more than 80%
ALT ([11]; 0.1 mg/kg i.p.): 16.7 ± 2.5 U/L
AST ([11]; 0.1 mg/kg i.p.): 94.5 ± 41.0 U/L
ALT ([11]; 0.5 mg/kg i.p.): 19.2 ± 5.6 U/L
AST ([11]; 0.5 mg/kg i.p.): 87.5 ± 33.8 U/L
ALT ([11]; 1 mg/kg i.p.): 19.6 ± 3.1 U/L
AST ([11]; 1 mg/kg i.p.): 95.2 ± 43.1 U/L
IC50 [13]: 11700 nM
protein levels of PDHK isozymes (PDHK1-4) [14]: did not significantly change
cytotoxic effect [15]: more than 80%
secretory lactate levels in media [16]: reduced
O2 consumption rate [17]: increased

SMILES: S=C(SSC(=S)N1CCOCC1)N1CCOCC1 [JX06]
IC50 [18]: 49 nM
concentration required for inhibition of tumor growth in in vivo experiments [19]: 40 to 80 mg/kg
concentration administered to suppress the intracellular PDHK1 activity [20]: 10 µM

SMILES: C[C@@H]1C[C@H]2O[C@@H]2/C=C\C=C\C(=O)Cc2c(Cl)c(O)cc(O)c2C(=O)O1 [radicicol]
concentration administered to suppress the intracellular PDHK1 activity [20]: 10 µM
